According to patent US20240228448A1 (Washington University, priority 2021, published 2024):

Experiments:
S1P1 = biological target: T1, S1P1 (Rattus norvegicus, UniProt P48303); assay: In vitro autoradiography of rat spinal cord and brain sections with CS1P1 blocking; format: binding; conditions: blocked by CS1P1 (5 μM), in words
T1 construct: conducted on rat spinal cord and brain section incubated with [^18F]FS1P1; from tissue; host or cells: rat brain (cortex, hippocampus) and spinal cord sections

[1] = MicroPET brain study in cynomolgus macaque; conditions: macaque brain
Experimental: Using a Focus 220 microPET scanner to collect dynamic scans for 2 hours after intravenous injection of ˜0.35 GBq dose into male macaques. Radiometabolites were measured from arterial blood samples collected at 5, 15, 30, and 60 min post-injection of radiotracer. The HPLC eluent was collected, and fractions were counted in a gamma counter.
Male macaques (˜10 kg) were used for PET imaging data acquisition with a microPET Focus 220 scanner (Siemens Inc., Knoxville, TN). Animals were anesthetized using ketamine and glycopyrrolate and maintained with inhalation of isoflurane. Core temperature was kept at 37° C. with a heated water blanket. The head was secured in a customized head holder. […] Emission data were corrected for dead time, scatter, and attenuation and then reconstructed. […] Predefined brain regions of interest from the template were applied to the co-registered PET image to obtain regional time-activity curves. The measurement of the brain uptake of radiotracer was standardized to body weight and the dose of radioactivity injected to yield a standardized uptake value (SUV).
The brain uptakes of these tracers were measured by Focus 220 microPET scanner to collect dynamic scans for 2 hours after intravenous injection of ˜0.35 GBq dose into male cynomolgus macaques (8-9 kg).

T1 sequence (P48303 whole entry): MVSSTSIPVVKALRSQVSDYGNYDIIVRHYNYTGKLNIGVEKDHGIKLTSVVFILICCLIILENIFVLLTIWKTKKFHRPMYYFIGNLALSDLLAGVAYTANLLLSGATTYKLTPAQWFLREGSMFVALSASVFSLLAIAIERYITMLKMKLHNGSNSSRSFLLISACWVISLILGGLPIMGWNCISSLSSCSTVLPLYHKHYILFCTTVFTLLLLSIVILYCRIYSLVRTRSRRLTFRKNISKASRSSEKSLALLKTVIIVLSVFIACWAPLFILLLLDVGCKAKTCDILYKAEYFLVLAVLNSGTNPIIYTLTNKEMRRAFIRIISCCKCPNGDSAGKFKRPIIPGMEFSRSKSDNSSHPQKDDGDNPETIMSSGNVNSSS

Cc1ccccc1-c1ccc(-c2nc(-c3ccc(CN(C)CCC(=O)O)c([18F])c3)no2)cc1C(F)(F)F [[^18F]FS1P1]
autoradiography signal and blocking (S1P1): strong signal, which was blocked
brain uptake, standard uptake value (SUV) ([1]; 120 min post-injection): ~2.3
brain uptake, maximum SUV value ([1]; from 20 to 120 min post-injection): ~2.3
